Laboratory results from US20260166159A1, “KRAS G12D DEGRADATION AGENT, AND PREPARATION METHOD AND USE THEREFOR” (LEADINGTAC PHARMACEUTICAL (SHAOXING) CO., LTD., priority 2022, published 2026).

Columns and labels:
phosphorylated ERK = experiment: KRAS G12D-mediated phosphorylated ERK inhibition assay (AlphaLISA), A427; assay type: cell-based; settings: Homo sapiens, A-427; A427 cells; class symbols; read-out: pERK (A427) IC50
Protocol: The relative amounts of phosphorylated ERK and total ERK in the samples were separately determined according to the test methods provided in the instructions of the AlphaLISA SureFire Ultra p-ERK 1/2 (Thr202/Tyr204) kit (PerkinElmer) and the AlphaLISA SureFire Ultra TotalERK 1/2 kit (PerkinElmer).
The experimental procedures for the assay of the phosphorylated ERK and total ERK were as follows: 10 μL of each sample was added to a 384-well plate (Greiner), and 5 μL of the prepared Acceptor Beads (PerkinElmer) mixed solution (containing 50× Acceptor Beads 615, Activation Buffer, and equal volumes of Reaction Buffer 1 and Reaction Buffer 2) was added to each well; and the plate was incubated at room temperature for 2 h. Then 5 μL of 1× Donor Beads (PerkinElmer) diluted with Dilution Buffer was added to each well, and the plate was incubated at room temperature overnight. After the incubation was completed, AlphaLISA signal values for the phosphorylated ERK and total ERK were separately measured on an EnVision microplate reader (PerkinElmer) in the AlphaScreen standard mode. The following formula was adopted: phosphorylated ERK correction value=phosphorylated ERK AlphaLISA signal value/total ERK AlphaLISA signal value. The relative ratio of the phosphorylated ERK for each sample was calculated. The percentage inhibition rates of the compounds on the phosphorylated ERK at each concentration were calculated by comparing the relative value of the phosphorylated ERK with that of the DMSO control well. Then non-linear curve fittings for logarithmic concentration-inhibition rate were performed by the GraphPad Prism 8 analysis software, and the IC50 values of the compounds on the inhibition of the phosphorylated ERK were obtained (Table 2).

[1] = biological target: T1, Human KRAS G12D 6His-tagged (Homo sapiens, UniProt P01116, G12D); experiment: KRAS-G12D/GTP binding assay (HTRF); settings: class symbols
T1 construct: purchased PerkinElmer
T1 sequence (P01116 1-188 isoform P01116-2 G12D): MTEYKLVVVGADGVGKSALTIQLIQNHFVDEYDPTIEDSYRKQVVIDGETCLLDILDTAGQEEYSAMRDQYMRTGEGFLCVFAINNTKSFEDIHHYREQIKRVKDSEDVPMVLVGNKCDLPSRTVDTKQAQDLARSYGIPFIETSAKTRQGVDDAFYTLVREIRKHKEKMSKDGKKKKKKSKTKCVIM
In short: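 HTRF kit format: 6His-tagged KRAS G12D incubated with compound (final 0.02-5000 nM, 0.5% DMSO), anti-6His Eu cryptate antibody and GTP Red reagent for 1 h at 25° C. 665/620 nm ratio versus control gave inhibition rates; IC50 by nonlinear fit.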

[2] = test system: KRAS G12D mutant human gastric cancer cell AGS; experiment: 3D cell proliferation inhibition assay, AGS; assay type: cell-based; settings: 168 h, 7 days, CTG, class symbols
In short: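 IC50 values derive from nonlinear fits of log dose against percent inhibition of 7-day 3D proliferation. Readout: CTG luminescence. Plating density: 5×10^2 cells/well in low-adsorption plates. Dosing: 10000–0.026 nM final, 0.2% DMSO.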

C#Cc1c(F)ccc2cc(O)cc(-c3ncc4c(N5CC6CCC(C5)N6)nc(OCC5(CN6CCN(CC7CCC8(CC7)CCN(C(=O)c7ccc(OC)c(N9CCC(=O)NC9=O)c7)CC8)CC6)CC5)nc4c3F)c12 [Example 14, 1-(5-(9-((4-((1-(((4-(3,8-diazabicyclo[3.2.1]octan-3-yl)-7-(8-ethynyl-7-fluoro-3-hydroxynaphthalen-1-yl)-8-fluoropyrido[4,3-d]pyrimidin-2-yl)oxy)methyl)cyclopropyl)methyl)piperazin-1-yl)methyl)-3-azaspiro[5.5]undecane-3-carbonyl)-2-methoxyphenyl)dihydropyrimidine-2,4(1H,3H)-dione]
IC50 (phosphorylated ERK): ≤ 50 nM
IC50 [1]: ≤ 50 nM
IC50 [2]: ≤ 50 nM

Cc1ccc2[nH]ncc2c1-c1ncc2c(N3CC4CCC(C3)N4)nc(OCC3(CN4CCN(CC5CCC6(CC5)CCN(C(=O)c5ccc(Cl)c(N7CCC(=O)NC7=O)c5)CC6)CC4)CC3)nc2c1F [Example 16, 1-(5-(9-((4-((1-(((4-(3,8-diazabicyclo[3.2.1]octan-3-yl)-8-fluoro-7-(5-methyl-1H-indazol-4-yl)pyrido[4,3-d]pyrimidin-2-yl)oxy)methyl)cyclopropyl)methyl)piperazin-1-yl)methyl)-3-azaspiro[5.5]undecane-3-carbonyl)-2-chlorophenyl)dihydropyrimidine-2,4(1H,3H)-dione]
IC50 (phosphorylated ERK): 1000 to 10000 nM
IC50 [1]: 1000 to 10000 nM
IC50 [2]: 1000 to 10000 nM

C#Cc1c(F)ccc2cc(O)cc(-c3ncc4c(N5CC6CCC(C5)N6)nc(OCC5(CN6CCN(CC7CCC8(CC7)CCN(C(=O)c7ccc(Cl)c(N9CCC(=O)N(C)C9=O)c7)CC8)CC6)CC5)nc4c3F)c12 [Example 17, 1-(5-(9-((4-((1-(((4-(3,8-diazabicyclo[3.2.1]octan-3-yl)-7-(8-ethynyl-7-fluoro-3-hydroxynaphthalen-1-yl)-8-fluoropyrido[4,3-d]pyrimidin-2-yl)oxy)methyl)cyclopropyl)methyl)piperazin-1-yl)methyl)-3-azaspiro[5.5]undecane-3-carbonyl)-2-chlorophenyl)-3-methyldihydropyrimidine-2,4(1H,3H)-dione]
IC50 (phosphorylated ERK): ≤ 50 nM
IC50 [1]: ≤ 50 nM
IC50 [2]: 50 to 100 nM

C#Cc1c(F)ccc2cc(O)cc(-c3ncc4c(N5CC6CCC(C5)N6)nc(OCC5(CN6CCN(CCC7CCC8(CC7)CCN(C(=O)c7ccc(Cl)c(N9CCC(=O)NC9=O)c7)CC8)CC6)CC5)nc4c3F)c12 [Example 18, 1-(5-(9-(2-(4-((1-(((4-(3,8-diazabicyclo[3.2.1]octan-3-yl)-7-(8-ethynyl-7-fluoro-3-hydroxynaphthalen-1-yl)-8-fluoropyrido[4,3-d]pyrimidin-2-yl)oxy)methyl)cyclopropyl)methyl)piperazin-1-yl)ethyl)-3-azaspiro[5.5]undecane-3-carbonyl)-2-chlorophenyl)dihydropyrimidine-2,4(1H,3H)-dione]
IC50 (phosphorylated ERK): ≤ 50 nM
IC50 [1]: ≤ 50 nM
IC50 [2]: ≤ 50 nM

CCc1cccc2cc(O)cc(-c3ncc4c(N5CC6CCC(C5)N6)nc(OCC5(CN6CCN(CCCC7CCN(C(=O)c8ccc(Cl)c(N9CCC(=O)NC9=O)c8)CC7)CC6)CC5)nc4c3F)c12 [Example 19, 1-(5-(4-(3-(4-((1-(((4-(3,8-diazabicyclo[3.2.1]octan-3-yl)-7-(8-ethyl-3-hydroxynaphthalen-1-yl)-8-fluoropyrido[4,3-d]pyrimidin-2-yl)oxy)methyl)cyclopropyl)methyl)piperazin-1-yl)propyl)piperidine-1-carbonyl)-2-chlorophenyl)dihydropyrimidine-2,4(1H,3H)-dione]
IC50 (phosphorylated ERK): ≤ 50 nM
IC50 [1]: ≤ 50 nM
IC50 [2]: ≤ 50 nM

C#Cc1c(F)ccc2cc(O)cc(-c3ncc4c(N5CC6CCC(C5)N6)nc(OCC5(CN6CCC(COCCC7CCN(C(=O)c8ccc(Cl)c(N9CCC(=O)NC9=O)c8)CC7)CC6)CC5)nc4c3F)c12 [Example 21, 1-(5-(4-(2-((1-((1-(((4-(3,8-diazabicyclo[3.2.1]octan-3-yl)-7-(8-ethynyl-7-fluoro-3-hydroxynaphthalen-1-yl)-8-fluoropyrido[4,3-d]pyrimidin-2-yl)oxy)methyl)cyclopropyl)methyl)piperidin-4-yl)methoxy)ethyl)piperidine-1-carbonyl)-2-chlorophenyl)dihydropyrimidine-2,4(1H,3H)-dione]
IC50 (phosphorylated ERK): ≤ 50 nM
IC50 [1]: ≤ 50 nM
IC50 [2]: ≤ 50 nM

CCc1c(F)ccc2cc(O)cc(-c3ncc4c(N5CC6CCC(C5)N6)nc(OCC5(CN6CCN(CCCC7CCN(C(=O)c8ccc(Cl)c(N9CCC(=O)NC9=O)c8)CC7)CC6)CC5)nc4c3F)c12 [Example 22, 1-(5-(4-(3-(4-((1-(((4-(3,8-diazabicyclo[3.2.1]octan-3-yl)-7-(8-ethyl-7-fluoro-3-hydroxynaphthalen-1-yl)-8-fluoropyrido[4,3-d]pyrimidin-2-yl)oxy)methyl)cyclopropyl)methyl)piperazin-1-yl)propyl)piperidine-1-carbonyl)-2-chlorophenyl)dihydropyrimidine-2,4(1H,3H)-dione]
IC50 (phosphorylated ERK): ≤ 50 nM
IC50 [1]: ≤ 50 nM
IC50 [2]: ≤ 50 nM

C#Cc1c(F)ccc2cc(O)cc(-c3ncc4c(N5CC6CCC(C5)N6)nc(OCC(C)(C)CN5CCN(CCCC6CCN(C(=O)c7ccc(Cl)c(N8CCC(=O)NC8=O)c7)CC6)CC5)nc4c3F)c12 [Example 23, 1-(5-(4-(3-(4-(3-((4-(3,8-diazabicyclo[3.2.1]octan-3-yl)-7-(8-ethynyl-7-fluoro-3-hydroxynaphthalen-1-yl)-8-fluoropyrido[4,3-d]pyrimidin-2-yl)oxy)-2,2-dimethylpropyl)piperazin-1-yl)propyl)piperidine-1-carbonyl)-2-chlorophenyl)dihydropyrimidine-2,4(1H,3H)-dione]
IC50 (phosphorylated ERK): 100 to 500 nM
IC50 [1]: ≤ 50 nM
IC50 [2]: 50 to 100 nM

C#Cc1c(F)ccc2cc(O)cc(-c3ncc4c(N5CC6CCC(C5)N6)nc(OCC5(CN6CCN(CCCC7CCN(C(=O)c8ccc(Cl)c(N9CCC(=O)NC9=O)c8)CC7)CC6)CCC5)nc4c3F)c12 [Example 24, 1-(5-(4-(3-(4-((1-(((4-(3,8-diazabicyclo[3.2.1]octan-3-yl)-7-(8-ethynyl-7-fluoro-3-hydroxynaphthalen-1-yl)-8-fluoropyrido[4,3-d]pyrimidin-2-yl)oxy)methyl)cyclobutyl)methyl)piperazin-1-yl)propyl)piperidine-1-carbonyl)-2-chlorophenyl)dihydropyrimidine-2,4(1H,3H)-dione]
IC50 (phosphorylated ERK): ≤ 50 nM
IC50 [1]: ≤ 50 nM
IC50 [2]: 50 to 100 nM

C#Cc1c(F)ccc2cc(O)cc(-c3ncc4c(N5CC6CCC(C5)N6)nc(OCC(C)(C)CN5CCN(CC6CCC7(CC6)CCN(C(=O)c6ccc(OC)c(N8CCC(=O)NC8=O)c6)CC7)CC5)nc4c3F)c12 [Example 26, 1-(5-(9-((4-(3-((4-(3,8-diazabicyclo[3.2.1]octan-3-yl)-7-(8-ethynyl-7-fluoro-3-hydroxynaphthalen-1-yl)-8-fluoropyrido[4,3-d]pyrimidin-2-yl)oxy)-2,2-dimethylpropyl)piperazin-1-yl)methyl)-3-azaspiro[5.5]undecane-3-carbonyl)-2-methoxyphenyl)dihydropyrimidine-2,4(1H,3H)-dione]
IC50 (phosphorylated ERK): ≤ 50 nM
IC50 [1]: 50 to 100 nM
IC50 [2]: 50 to 100 nM

C#Cc1c(F)ccc2cc(O)cc(-c3ncc4c(N5CC6CCC(C5)N6)nc(OCC5(CN6CCN(CC7CCC8(CC7)CCN(C(=O)c7ccc(Br)c(N9CCC(=O)NC9=O)c7)CC8)CC6)CC5)nc4c3F)c12 [Example 29, 1-(5-(9-((4-((1-(((4-(3,8-diazabicyclo[3.2.1]octan-3-yl)-7-(8-ethynyl-7-fluoro-3-hydroxynaphthalen-1-yl)-8-fluoropyrido[4,3-d]pyrimidin-2-yl)oxy)methyl)cyclopropyl)methyl)piperazin-1-yl)methyl)-3-azaspiro[5.5]undecane-3-carbonyl)-2-bromophenyl)dihydropyrimidine-2,4(1H,3H)-dione]
IC50 (phosphorylated ERK): ≤ 50 nM
IC50 [1]: ≤ 50 nM
IC50 [2]: ≤ 50 nM

CCc1c(F)ccc2cc(O)cc(-c3ncc4c(N5CC6CCC(C5)N6)nc(OCC5(CN6CCN(CC7CCC8(CC7)CCN(C(=O)c7ccc(Cl)c(N9CCC(=O)NC9=O)c7)CC8)CC6)CC5)nc4c3F)c12 [Example 30, 1-(5-(9-((4-((1-(((4-(3,8-diazabicyclo[3.2.1]octan-3-yl)-7-(8-ethyl-7-fluoro-3-hydroxynaphthalen-1-yl)-8-fluoropyrido[4,3-d]pyrimidin-2-yl)oxy)methyl)cyclopropyl)methyl)piperazin-1-yl)methyl)-3-azaspiro[5.5]undecane-3-carbonyl)-2-chlorophenyl)dihydropyrimidine-2,4(1H,3H)-dione]
IC50 (phosphorylated ERK): ≤ 50 nM
IC50 [1]: 50 to 100 nM
IC50 [2]: ≤ 50 nM
